Key:
A431 cells = test: Apoptosis: cleaved caspase-3 ELISA, A431 cells; type: cell-based, human; conditions: within 6 hours of treatment
Experimental: Apoptosis induction was determined by semi-quantification of cytochrome C levels in the mitochondrial fraction analyzed by WB, following 2 hours of treatment with Formula C in A431 cells. Cleaved caspase-3 levels were analyzed following 6 hours of Formula C treatment in A431 cells, using PathScan® Cleaved Caspase-3 Sandwich ELISA kit (CST, Danvers, MA).

Head & Neck HNXF 908 = test: CFA, HNXF 908; type: cell-based, human; conditions: PDX/CFA
Experimental: (§1) CFA was performed by Charles River Laboratories (Freiburg, Germany) in 96-well plate format according to a modified two-layer soft agar assay. The origin of the tumor xenografts has been described (Fiebig et al. 1989, incorporated herein by reference). The list of tumors used in this study is detailed in Table 1.

Pancreas PAXF 736 = test: CFA, PAXF 736; type: cell-based, human; conditions: PDX/CFA
Experimental: as §1

[1] = test system: Lung (NSCLC, adeno) LXFA 1012; test: CFA, LXFA 1012; type: cell-based, human; conditions: PDX/CFA
Experimental: as §1

[2] = test system: Lung (NSCLC, epidermoid) LXFE 772; test: CFA, LXFE 772; type: cell-based, human; conditions: PDX/CFA
Experimental: as §1

[3] = test system: Leukemia (AML) LEXFAM KG-1a; test: CFA, LEXFAM KG-1a; type: cell-based, human; conditions: Cell line/CFA
Experimental: as §1

[4] = test system: Leukemia (BCLL) LEXFCM JURL-MK1; test: CFA, LEXFCM JURL-MK1; type: cell-based, human; conditions: Cell line/CFA
Experimental: as §1

Lung (SCLC) LXFS NCI-H82 = test: CFA, LXFS NCI-H82; type: cell-based, human; conditions: Cell line/CFA
Experimental: as §1

Kidney RXF 423 = test: CFA, RXF 423; type: cell-based, human; conditions: PDX/CFA
Experimental: as §1

Colon CXF 243 = test: Colony forming assay (CFA), CXF 243; type: cell-based, human; conditions: PDX/CFA
Experimental: as §1

[5] = test system: Cutanous T cell lymphoma MJ; test: XTT cell viability assay, MJ; type: cell-based, human; conditions: Cell line/XTT
Experimental: (§2) For XTT assays, cells were plated in 96-well plates (5,000 cells per well) for 24 hours. Cells were then incubated with different concentrations of Formula C in triplicates for 72 hr in DMEM supplemented with 0.5% FCS and 5 mM Glucose. Cell viability was evaluated using 2,3-bis-(2-methoxy-4-nitro-5-sulfophenyl)-2H-tetrazolium-5-carboxanilide (XTT)-based colorimetric assay kit (Biological Industries Ltd., Kibbutz Beit-Haemek, Israel). The optical density was measured by an Infinite 200 ELISA reader at 450 nm and reference was measured at 630 nm (Tecan, Männedorf, Switzerland).

Head & Neck HNXF 2205 = test: CFA, HNXF 2205; type: cell-based, human; conditions: PDX/CFA
Experimental: as §1

[6] = test system: Lung (NSCLC, large) LXFL 430; test: CFA, LXFL 430; type: cell-based, human; conditions: PDX/CFA
Experimental: as §1

Kidney RXF 1220 = test: CFA, RXF 1220; type: cell-based, human; conditions: PDX/CFA
Experimental: as §1

[7] = test system: Lymphoma (Non-Hodgkin) LYXF MY-LA; test: CFA, LYXF MY-LA; type: cell-based, human; conditions: Cell line/CFA
Experimental: as §1

[8] = test system: panel of 57 patient-derived tumors and cancer cell lines; test: CFA panel of 57 patient-derived tumors and cancer cell lines; type: cell-based, human
Experimental: as §1

Colon CXF 280 = test: CFA, CXF 280; type: cell-based, human; conditions: PDX/CFA
Experimental: as §1

[9] = test system: Lung (NSCLC, adeno) LXFA 749; test: CFA, LXFA 749; type: cell-based, human; conditions: PDX/CFA
Experimental: as §1

[10] = Phase 1a single topical application, pharmacokinetics; type: in vivo, human; conditions: healthy volunteers
Experimental: The Phase 1a clinical trial was a randomized, double-blinded, placebo-controlled, dose-escalation study in healthy older-adult volunteers to evaluate the safety, tolerability, and pharmacokinetics of a single topical dermal application of Formula C ointment. The study was conducted under FDA IND in a Phase 1 unit in the United States.
Fifteen healthy volunteers, aged 35-70, were sequentially assigned to 1 of 3 consecutive treatment cohorts (5%, 10% or 20% Formula C ointment, respectively). Five subjects were randomized in a double-blind fashion in each dose cohort: 4 subjects received active Formula C ointment and 1 received matched placebo (0% Formula C; vehicle control). The study ointment (250 mg) was applied once to a 25 centimeter squared area of skin on the forehead of each volunteer.

[11] = Phase 2a in subjects with actinic keratosis, pharmacokinetics; type: in vivo, human; conditions: subjects with AK; topical application
Experimental: The Phase 2 clinical trial was a multiple-center randomized, double-blind, placebo-controlled, parallel-cohorts study to evaluate the efficacy, safety, tolerability, and pharmacokinetics of once-daily application of topical Formula C ointment (QD 200 mg) for 28 days in subjects with actinic keratosis. Subjects were followed for one or two months after they completed treatment (through day 56 or day 84). The primary and exploratory efficacy endpoints for the study were reduction in the number of lesions on days 56 and 84, respectively. Subjects were randomly assigned in a double-blind fashion to one of three parallel treatment cohorts (5%, or 10% Formula C, or placebo) at a ratio of 1:1:1. To qualify for the study, subjects aged 18 (inclusive) or older must have had 4-8 discrete Grade 1 or 2 AK lesions within a 25-centimeter squared area of the skin of their scalp or face. The study enrolled 93 subjects in the US and Israel.

Prostate PRXF MRI-H-1579 = test: CFA, PRXF MRI-H-1579; type: cell-based, human; conditions: Cell line/CFA
Experimental: as §1

[12] = test system: Leukemia (AML) LEXFAM THP-1; test: CFA, LEXFAM THP-1; type: cell-based, human; conditions: Cell line/CFA
Experimental: as §1

Breast MAXF MDA-MB-231 = test: CFA, MAXF MDA-MB-231; type: cell-based, human; conditions: Cell line/CFA
Experimental: as §1

[13] = test system: Lung (NSCLC, adeno) LXFA 1041; test: CFA, LXFA 1041; type: cell-based, human; conditions: PDX/CFA
Experimental: as §1

Stomach GXF 97 = test: CFA, GXF 97; type: cell-based, human; conditions: PDX/CFA
Experimental: as §1

[14] = test system: Cutanous T cell lymphoma Hut-78; test: XTT cell viability assay, Hut-78; type: cell-based, human; conditions: Cell line/XTT
Experimental: as §2

Stomach GXF 214 = test: CFA, GXF 214; type: cell-based, human; conditions: PDX/CFA
Experimental: as §1

[15] = test system: Leukemia (AML) LEXFAM HL-60; test: CFA, LEXFAM HL-60; type: cell-based, human; conditions: Cell line/CFA
Experimental: as §1

CC/C=C\CC1C(=O)CCC1CC(=O)Oc1cccc2cccnc12 (stereo not shown) [Formula C]
cellular levels of cleaved caspase-3 (A431 cells): increase in cellular levels of cleaved caspase-3 | IC50 (Head & Neck HNXF 908): 3880 nM | IC50 (Pancreas PAXF 736): 1740 nM | IC50 [1]: 1360 nM | IC50 [2]: 3780 nM | IC50 [3]: 1920 nM | IC50 [4]: 1670 nM | IC50 (Lung (SCLC) LXFS NCI-H82): 1770 nM | IC50 (Kidney RXF 423): 1700 nM | IC50 (Colon CXF 243): 1760 nM | IC50 [5]: 1470 nM | IC50 (Head & Neck HNXF 2205): 3960 nM | IC50 [6]: 237 nM | IC50 (Kidney RXF 1220): 6330 nM | IC50 [7]: 1000 nM | share of tested cancer types with strong anti-proliferation effect (IC50<2 uM) [8]: 70% | IC50 (Colon CXF 280): 5440 nM | IC50 [9]: 1700 nM | systemic exposure of VDA-1102 or its major metabolite [10]: No systemic exposure | systemic exposure of VDA-1102 or its major metabolite [11]: No systemic exposure | IC50 (Prostate PRXF MRI-H-1579): 1660 nM | IC50 [12]: 2180 nM | IC50 (Breast MAXF MDA-MB-231): 1700 nM | IC50 [13]: 1500 nM | IC50 (Stomach GXF 97): 6450 nM | IC50 [14]: 1060 nM | IC50 (Stomach GXF 214): 1940 nM | IC50 [15]: 1540 nM
